Test results: patent publication US12115178B2, “Acylated active agents and methods of their use for the treatment of autoimmune disorders” (Flagship Pioneering Innovations V, Inc., priority 2018, dated 2024)

Assays:
Type in all cases: in vitro ADME
[1] = Assay 3. In vitro Colonic Material Stability Assay
[2] = Assay 1. Stability in Simulated Gastric Fluid (SGF); conditions: SGF pH 1.6 with pepsin, 1 μM, 37° C.
Summary of the method: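 Compound at 1 μM final (from 1 mM DMSO stock) incubated at 37° C in SGF: NaCl medium at pH 1.6 with FaSSIF powder and 0.1 mg/mL pepsin, prepared fresh. Aliquots taken at T0 and regular intervals, quenched with equal volume acetonitrile; LC/MS gives degradation rate.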

[3] = Assay 2. Stability in Simulated Intestinal Fluid (SIF); conditions: SIF pH 6.7 with pancreatin, 1 μM, 37° C.
Summary of the method: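 Compounds at 1 µM (from 1 mM DMSO stock) were incubated at 37 °C with agitation in simulated intestinal fluid: FaSSIF in pH 6.7 phosphate buffer with pancreatin. Aliquots taken from T0 onward were quenched with acetonitrile and analyzed by LC/MS for degradation rate.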

[4] = colonic material slurry, anaerobic, 1 or 10 μM

Row | SMILES | Assay 3 (% Remaining at 24 h) [1, 4] | Assay 1 (SGF) (% Remaining @ 1 hour) [2] | Assay 2 (SIF) (% @ Remaining 4 hours) [3] | Assay 3 (% Remaining at 24 h) ([1]; Run 1, colonic material) | Assay 3 (% Remaining at 24 h) ([1]; Run 2, colonic material)
1 | CCC(=O)OC[C@H]1O[C@H](OC(=O)CCc2c[nH]c3ccccc23)[C@H](OC(=O)CC)[C@@H](OC(=O)CC)[C@@H]1OC(=O)CC [Compound 109, [(2R,3R,4S,5R,6R)-6-{[3-(1H-indol-3-yl)propanoyl]oxy}-3,4,5-tris(propanoyloxy)oxan-2-yl]methyl propanoate] | A (<25% of the tested compound remaining) | C (>75% of the tested compound remaining) | A (<25% of the tested compound remaining) |  | 
2 | CCC(=O)O[C@@H]1[C@@H](OC(=O)CC)[C@H](OC(=O)CCc2c[nH]c3ccccc23)OC[C@@H]1OC(=O)CC [Compound 74, (2S,3R,4S,5S)-3,4,5-tris(propanoyloxy)oxan-2-yl 3-(1H-indol-3-yl)propanoate] | A (<25% of the tested compound remaining) | C (>75% of the tested compound remaining) | A (<25% of the tested compound remaining) |  | 
3 | CCCC(=O)O[C@@H]1[C@@H](OC(=O)CCC)[C@H](C)O[C@@H](OC(=O)CCc2c[nH]c3ccccc23)[C@@H]1OC(=O)CCC [Compound 83, (2S,3R,4R,5S,6S)-4,5-bis(butanoyloxy)-2-{[3-(1H-indol-3-yl)propanoyl]oxy}-6-methyloxan-3-yl butanoate] | A (<25% of the tested compound remaining) | C (>75% of the tested compound remaining) | A (<25% of the tested compound remaining) |  | 
4 | CCC(=O)O[C@@H]1[C@@H](OC(=O)CC)[C@@H](OC(=O)CC)C(O)O[C@H]1C (stereo partly drawn) [Compound 113, (3R,4R,5S,6S)-2-hydroxy-6-methyl-4,5-bis(propanoyloxy)oxan-3-yl propanoate] | C (>75% of the tested compound remaining) | C (>75% of the tested compound remaining) | A (<25% of the tested compound remaining) |  | 
5 | CCC(=O)O[C@H]1OC[C@@H](OC(=O)CC)[C@@H](OC(=O)CC)[C@H]1OC(=O)CC [Compound 101, (2R,3R,4R,5R)-3,4,5-tris(propanoyloxy)oxan-2-yl propanoate] | A (<25% of the tested compound remaining) | C (>75% of the tested compound remaining) | A (<25% of the tested compound remaining) |  | 
6 | CCC(=O)Oc1ccc(-c2oc3cc(OC(=O)CC)cc(OC(=O)CC)c3c(=O)c2OC(=O)CC)cc1 [Compound 167, 4-[4-oxo-3,5,7-tris(propanoyloxy)-4H-chromen-2-yl]phenyl propanoate] | A (<25% of the tested compound remaining) | B (25-75% of the tested compound remaining) | A (<25% of the tested compound remaining) |  | 
7 | CCC(=O)O[C@H]1[C@H](OC)OC[C@@H](OC(=O)CC)[C@H]1OC(=O)CC [Compound 51, (2R,3R,4R,5R)-2-methoxy-3,5-bis(propanoyloxy)oxan-4-yl propanoate] | B (25-75% of the tested compound remaining) | C (>75% of the tested compound remaining) | C (>75% of the tested compound remaining) |  | 
8 | CCC(=O)O[C@H]1O[C@H](C(=O)O)[C@@H](OC(=O)CC)[C@H](OC(=O)CC)[C@H]1OC(=O)CC [Compound 46, (2S,3S,4S,5R,6R)-3,4,5,6-tetrakis(propanoyloxy)oxane-2-carboxylic acid] | A (<25% of the tested compound remaining) | C (>75% of the tested compound remaining) | A (<25% of the tested compound remaining) |  | 
9 | CCC(=O)O[C@H]1[C@@H](OC(=O)CCc2c[nH]c3ccccc23)OC[C@@H](OC(=O)CC)[C@H]1OC(=O)CC [Compound 94, (2R,3R,4R,5R)-3,4,5-tris(propanoyloxy)oxan-2-yl 3-(1H-indol-3-yl)propanoate] | A (<25% of the tested compound remaining) | C (>75% of the tested compound remaining) | A (<25% of the tested compound remaining) |  | 
10 | CCCC(=O)O[C@@H]1[C@@H](OC(=O)CCC)[C@H](C)O[C@@H](Oc2ccc(N)cc2C(=O)O)[C@@H]1OC(=O)CCC [Compound 39, 5-amino-2-(((2S,3R,4R,5S,6S)-3,4,5-tris(butyryloxy)-6-methyltetrahydro-2H-pyran-2-yl)oxy)benzoic acid] | C (>75% of the tested compound remaining) | C (>75% of the tested compound remaining) | B (25-75% of the tested compound remaining) |  | 
11 | CCCC(=O)O[C@H]1[C@H](OC)OC[C@@H](OC(=O)CCC)[C@H]1OC(=O)CCC [Compound 50, (2R,3R,4R,5R)-3,5-bis(butanoyloxy)-2-methoxyoxan-4-yl butanoate] | A (<25% of the tested compound remaining) | C (>75% of the tested compound remaining) | A (<25% of the tested compound remaining) |  | 
12 | O=C(CCc1c[nH]c2ccccc12)O[C@@H]1OC[C@H](OC(=O)CCc2c[nH]c3ccccc23)[C@H](OC(=O)CCc2c[nH]c3ccccc23)[C@H]1OC(=O)CCc1c[nH]c2ccccc12 [Compound 69, (2S,3R,4S,5S)-3,4,5-tris({[3-(1H-indol-3-yl)propanoyl]oxy})oxan-2-yl 3-(1H-indol-3-yl)propanoate] | A (<25% of the tested compound remaining) | B (25-75% of the tested compound remaining) | A (<25% of the tested compound remaining) |  | 
13 | CCC(=O)O[C@@H]1[C@@H](OC(=O)CC)[C@H](OC(=O)Cc2c[nH]c3ccccc23)OC[C@H]1OC(=O)CC [Compound 76, (2S,3R,4S,5R)-2-{[2-(1H-indol-3-yl)acetyl]oxy}-4,5-bis(propanoyloxy)oxan-3-yl propanoate] | A (<25% of the tested compound remaining) | C (>75% of the tested compound remaining) | A (<25% of the tested compound remaining) |  | 
14 | C[C@@H]1O[C@H](OC(=O)CCc2c[nH]c3ccccc23)[C@@H](OC(=O)CCc2c[nH]c3ccccc23)[C@H](OC(=O)CCc2c[nH]c3ccccc23)[C@@H]1OC(=O)CCc1c[nH]c2ccccc12 [Compound 70, (2R,3S,4R,5R,6S)-3,4,5-tris({[3-(1H-indol-3-yl)propanoyl]oxy})-6-methyloxan-2-yl 3-(1H-indol-3-yl)propanoate] |  | B (25-75% of the tested compound remaining) | A (<25% of the tested compound remaining) | A (<25% of the tested compound remaining) | B (25-75% of the tested compound remaining)
15 | CCC(=O)O[C@@H]1[C@H](OC(=O)CC)COC(O)[C@@H]1OC(=O)CC (stereo partly drawn) [Compound 105, (3R,4R,5R)-2-hydroxy-4,5-bis(propanoyloxy)oxan-3-yl propanoate] | B (25-75% of the tested compound remaining) | C (>75% of the tested compound remaining) | B (25-75% of the tested compound remaining) |  | 
16 | CCC(=O)Oc1ccc(-c2cc(=O)c3c(O)cc(OC(=O)CC)cc3o2)cc1 [Compound 168, 5-hydroxy-4-oxo-2-[4-(propanoyloxy)phenyl]-4H-chromen-7-yl propanoate] | A (<25% of the tested compound remaining) | B (25-75% of the tested compound remaining) | A (<25% of the tested compound remaining) |  | 
17 | CCC(=O)O[C@@H]1[C@@H](OC(=O)CC)[C@H](C)O[C@@H](OC(=O)Cc2c[nH]c3ccccc23)[C@@H]1OC(=O)CC [Compound 115, (2S,3R,4R,5S,6S)-2-{[2-(1H-indol-3-yl)acetyl]oxy}-6-methyl-4,5-bis(propanoyloxy)oxan-3-yl propanoate] | A (<25% of the tested compound remaining) | C (>75% of the tested compound remaining) | A (<25% of the tested compound remaining) |  | 
18 | CCC(=O)Oc1ccc(-c2cc(=O)c3c(OC(=O)CC)cc(OC(=O)CC)cc3o2)cc1 [Compound 172, 4-oxo-7-(propanoyloxy)-2-[4-(propanoyloxy)phenyl]-4H-chromen-5-yl propanoate] | B (25-75% of the tested compound remaining) | C (>75% of the tested compound remaining) | A (<25% of the tested compound remaining) |  | 
19 | CCC(=O)OC[C@H]1O[C@H](OC)[C@H](OC(=O)CC)[C@@H](OC(=O)CC)[C@H]1OC(=O)CC [Compound 57, [(2R,3S,4S,5R,6S)-6-methoxy-3,4,5-tris(propanoyloxy)oxan-2-yl]methyl propanoate] | A (<25% of the tested compound remaining) | C (>75% of the tested compound remaining) | A (<25% of the tested compound remaining) |  | 
20 | O=C(Cc1c[nH]c2ccccc12)Oc1cc(C(=O)O)cc(OC(=O)Cc2c[nH]c3ccccc23)c1OC(=O)Cc1c[nH]c2ccccc12 [Compound 200, 3,4,5-tris({[2-(1H-indol-3-yl)acetyl]oxy})benzoic acid] | A (<25% of the tested compound remaining) | C (>75% of the tested compound remaining) | A (<25% of the tested compound remaining) |  | 
